Results published in US20150283212A1, “ORAL CALCITONIN COMPOSITIONS AND APPLICATIONS THEREOF” (Novartis AG, priority 2007, published 2015).

Test: Pharmacokinetics of orally administered salmon calcitonin combined with 5-CNAC
Assay type: in vivo
Text: An oral form of calcitonin would improve patient acceptance and facilitate improved patient compliance by providing a more acceptable, alternative delivery route for peptide therapy. […] Salmon calcitonin appears rapidly in the plasma following oral administration, with median tmax at about 0.25 hr post-dose. Following tmax the plasma concentration fell rapidly. […] Plasma sCT concentrations increased as sCT doses increased. However, with high variability in available data, dose-proportional increase in AUC could not be confirmed.

With `CC(C)C[C@H](NC(=O)[C@H](CCCCN)NC(=O)CNC(=O)[C@H](CC(C)C)NC(=O)[C@@H](NC(=O)[C@@H]1CSSC[C@H](N)C(=O)N[C@@H](CO)C(=O)N[C@@H](CC(N)=O)C(=O)N[C@@H](CC(C)C)C(=O)N[C@@H](CO)C(=O)N[C@@H]([C@@H](C)O)C(=O)N1)C(C)C)C(=O)N[C@@H](CO)C(=O)N[C@@H](CCC(N)=O)C(=O)N[C@@H](CCC(=O)O)C(=O)N[C@@H](CC(C)C)C(=O)N[C@@H](Cc1c[nH]cn1)C(=O)N[C@@H](CCCCN)C(=O)N[C@@H](CC(C)C)C(=O)N[C@@H](CCC(N)=O)C(=O)N[C@H](C(=O)N[C@@H](Cc1ccc(O)cc1)C(=O)N1CCC[C@H]1C(=O)N[C@@H](CCCNC(=N)N)C(=O)N[C@H](C(=O)N[C@@H](CC(N)=O)C(=O)N[C@H](C(=O)NCC(=O)N[C@@H](CO)C(=O)NCC(=O)N[C@H](C(=O)N1CCC[C@H]1C(N)=O)[C@@H](C)O)[C@@H](C)O)[C@@H](C)O)[C@@H](C)O` [salmon calcitonin] the “effect of food on bioavailability of sCT” value (administered with food) was “markedly reduces”, the “accumulation (AUC after multiple-dose vs single-dose)” value (oral) was “No significant accumulation” and the “gastrointestinal (GI) absorption of the sCT” value (oral, combination with 5-CNAC, rodents, monkeys and humans) was “marked increase”. The Tmax (plasma, following oral administration, post-dose, read-out: median tmax) was roughly 15 min.
